Laboratory results from patent publication US20230203130A1, “A PEPTIDE COCKTAIL” (Hubro Therapeutics AS, priority 2020, published 2023).
Read-outs that look alike come from different tables or passages of the source. Where no end group is shown, it is not given here.

Tests used:
[1] = assay type: physicochemical
Protocol: A batch of fsp5 (SEQ ID NO: 19) was prepared by solid phase peptide synthesis (SPPS) by using FMOC chemistry and Prelude synthesizer (Gyros Protein Technologies Inc., USA). The crude peptide was analysed by UPLC and MS. […] UPLC system: Column; Acquity UPLC BEH C18 […], detection; PDA 210-500 nm, solvent A); 0.1% TFA in water, solvent B; 0.1% TFA in MeCN, gradient: 20-70% B (2-10 minutes, linear).
When the purity of the small amount of purified fsp5 (SEQ ID NO: 19) was reassessed by UPLC after lyophilisation, the purity had dropped from around 90% to below 50% as shown in FIG. 4.

[2] = test system: T cells (PBMC) from healthy donors; assay: T-cell proliferation (3H-thymidine, SI) after in vitro stimulation of PBMC with cocktail fsp2+fsp4 (Example 4); assay type: cell-based, human; set-up: T cell proliferation (stimulation index, SI): immunogenicity: dose or concentration left out as unconfirmed
Protocol: Fresh buffy coats from four healthy donors were obtained from a blood bank.
Peripheral blood mononuclear cells (PBMC) isolated from fresh buffy coats from four healthy donors were counted and suspended in DC medium to 15*10^6 cells/ml, and subsequently diluted with DC-medium to 4*10^6 cells/ml (Table 6).
Four 24-well plates were used for each donor, with 4*10^6 cells per well (each well has a volume of 1 ml).
Peptide cocktail: Solution of peptides fsp2+fsp4, containing […] of each peptide. 40 μl peptide solution was added to each well.
The plates were incubated in a cell incubator for 14 days (37° C., 5% CO2). IL-2 and IL-7 were added on day 3. The cells were inspected daily.
Test peptides: fsp2+fsp4 (SEQ ID NOs: 21 and 23), fsp1 (SEQ ID NO: 20), fsp2 (SEQ ID NO: 21), fsp3 (SEQ ID NO: 22), fsp4 (SEQ ID NO: 23), fsp5 (SEQ ID NO: 19).
Negative controls: T cells, T cells+APC (without addition of test peptides)
Cells and reagents were added to plate wells (in triplicate) as described in Tables 8 and 9 below. The total volume added to each well was 0.20 ml. • T cells (PBMC): 50 000 cells/well (0.25*10^6 cells/ml) • APC: Irradiated (30 Gy, 8 minutes) autologous feeder cells: 50 000 cells/well • (fspx): 0.2 nmol peptide/well (each peptide), concentration: […] peptide. (fsp was dissolved in DMSO before dilution to correct concentration)
The plates were incubated in a cell incubator for 48 hours (37° C., 5% CO2).
After incubation for 48 hours, 20 μl 3H-tThymidine solution (5 Ci/ml) was added to each well and the plates were incubated for approximately 17 hours (37° C., 5% CO2).
After 17 hours the cells were harvested (Unifilters) and dried on the filters at 45° C. until completely dry. After covering the bottom of the Unifilters with adhesive covers (delivered with the Unifilters) 25 μl micro scintillation liquid was added to each well, the plate was covered with TopSeal and 3H-Thymidine uptake was measured as counts per minute (CPM) using a microplate scintillation counter.
The T cell proliferation results after the first round of in vitro stimulation with the cocktail of fsp2 and fsp4 peptides are presented as stimulation index (SI) in FIG. 10. SI=mean CPM (triplicates) of (T cells+APC+test peptide(s)) divided by mean CPM (triplicates) of (T cells+APC). SI>1 indicates an increase in T-cell proliferation and SI 2 is a clear sign of immunogenicity.
PBMCs harvested after the first in vitro stimulation were re-stimulated in vitro according to the protocol set out above, with 2×10^6 cells per well. T-cell proliferation was tested according to the protocol set out above.

[3] = assay type: physicochemical; remark: listed apart in the source
Protocol: The peptide was difficult to dissolve and it was attempted to dissolve the crude fsp5 (SEQ ID NO: 19) (˜150 mg) in approximately 4 ml 50% MeCN in water under gentle heating.
Another batch of fsp5 (SEQ ID NO: 19) was prepared, dissolved in neat DMSO under gentle heating and purified by preparative HPLC. Again, only very small amounts of purified fsp5 (SEQ ID NO: 19) were obtained.

[4] = test system: T-cells from PMBCs of healthy donors; assay: T-cell proliferation after stimulation of PMBCs with mixture fsp17, fsp15 and fsp16 (Example 9); assay type: cell-based, human
Protocol: Using a similar procedure to that used in Examples 4 and 7 above, PMBCs from four healthy donors were stimulated in vitro with a peptide mixture containing equimolar amounts (10 uM) of fsp17 (SEQ ID NO: 126), fsp15 (SEQ ID NO: 127) and fsp16 (SEQ ID NO: 128), which are shown in Table 15, below. These peptides have the non-chiral amino acid glycine at their C-terminal, which can serve as a linker for conjugation of the peptides to other molecules. It is expected that this C-terminal glycine will not create any new T-cell epitopes which will change the specificity of the induced T-cells.
After one round (14 days) of in vitro stimulation, T-cells were harvested and tested for recognition of the peptide mixture or individual peptides, using a concentration of 10 μM of each peptide. T-cell proliferation was measured as counts per minute (CPM) after uptake of ^3H-thymidine in a standard T cell proliferation assay.
The PMBCs from the four healthy donors underwent a second round of in vitro stimulation, and T-cells were again harvested and tested for proliferation against the peptide mixture and the individual peptides.

T cells = settings: cited from earlier work
[5] = test system: colorectal cancer cell line HCT116; settings: Linnebacher et al.; HCT116 carries the corresponding frameshift mutation; cited from earlier work
[6] = test system: T-cells from PMBCs of healthy donors; assay: T-cell proliferation after stimulation of PMBCs with mixture fsp10, fsp11 and fsp13 (Example 8); assay type: cell-based, human; settings: FIG. 19; for T-cell response (proliferation, CPM): donor 1, one round of in vitro stimulation (14 days), 10 μM
Protocol: Using a similar procedure to that used in Examples 4 and 7 above, PMBCs from four healthy donors were stimulated in vitro with a peptide mixture containing equimolar amounts (10 uM) of fsp10 (SEQ ID NO: 28), fsp11 (SEQ ID NO: 29) and fsp13 (SEQ ID NO: 31).
After one round of stimulation (14 days), T-cells were harvested and tested for recognition of the peptide mixture, using single peptide concentrations of 10 μM. T-cell proliferation was measured as counts per minute (CPM) after uptake of ^3H-thymidine in a standard T cell proliferation assay.
The PMBCs from the four healthy donors underwent a second round of in vitro stimulation, and T-cells were again harvested and tested for proliferation against the peptide mixture and the individual peptides. […] While it has, in the past, been considered that a SI value of greater than 2 is the criterion for indicating a T-cell response in a T-cell proliferation assay, this is only the case in subjects who have been vaccinated prior to the T-cell proliferation assay. Where a healthy subject has not been vaccinated before the T-cell proliferation assay (as in the present T-cell proliferation assay), it is not expected that a SI value of 2 or greater will be achieved. Therefore, in non-vaccinated, healthy subjects, an increase in the SI value above 1 is indicative of a T-cell response.

[7] = second round of in vitro stimulation, FIG. 22

For “KCIMKEKKSLVRLSSCVPVALMSAMTTSSSQKN (listed as Homo sapiens) [fsp5, optimised consensus peptide of TGFβR2]”, the “purity by UPLC after lyophilisation (stability)” value [1] was “below 50%”, the relative immunogenicity ([2]; FIGS. 10 and 11, compared with fsp3 and fsp4) was “more immunogenic than peptides which do not comprise amino acids from the wild-type sequence of TGFβR2” and the “T cell proliferation (stimulation index, SI): immunogenicity” value ([2]; first and second round of in vitro stimulation with cocktail of fsp2 and fsp4, four healthy donors, FIGS. 10-12) was “stimulated T-cells induced from PMBCs”. The “effect of adding water to DMSO solution” value [3] was “precipitation of the peptide” and the solubility [3] was “no clear solution could be obtained”.
With “KGIMKEKKSLVRLSSCVPVALMSAMTG (not fully specified) [fsp17, modified peptide of −1a frameshifted TGFβR2]” the “T-cell induction (proliferation)” value [4, 7] was “T-cells were induced”.
In the case of “KKKGRRNRIPAVLRTEGEPLHTPSVGMRETG (listed as Homo sapiens) [fsp15, peptide of −1a frameshifted ASTE1]”, the “T-cell induction (proliferation)” value ([4]; one round (14 days) of in vitro stimulation, 10 μM, FIG. 21) was “T-cells are induced” and the “T-cell induction (proliferation)” value [4, 7] was “T-cells were induced”.
For “RLSSCVPVA (listed as Homo sapiens) [p573, prior art peptide of mutTGFβR2]”, the immunogenicity (T cells; EP1078000 FIG. 14, four rounds of stimulation of the T-cells) is listed as “not immunogenic”, the immunogenicity (T cells; Linnebacher et al., FIG. 1) is listed as “immunogenic” and the “activating specific CTLs” value (T cells; Linnebacher et al., HLA-A2.1 restricted, in vitro) is listed as “capable of activating specific CTLs”. The immunogenicity (T cells; Saeterdal et al., 2001, Cancer Immunol Immunother) was “immunogenic”, the “generation of CTL line and CTL clones” value (T cells; Saeterdal et al., Cancer Immunol Immunother 2001) was “able to generate a CTL line and several CTL clones” and the “lysis of colorectal cancer cell line HCT116” value [5] was “able to lyse the colorectal cancer cell line HCT116”.
In the case of “SCPLRDLQTLWPILALISMSSIWGTMFS (listed as Homo sapiens) [fsp11, peptide of −1a frameshifted SLC22A9]”, the “T-cell response (proliferation, CPM)” value [6] was “induced T-cell responses” and the “induction of T-cells relative to mixture of fsp11 and fsp13” value ([6]; donor 1, one round) was “greater induction of T-cells than the mixture of fsp11”.
For “STCPTYVKGSPSCPLRDLQ (listed as Homo sapiens) [fsp13, peptide of −1a frameshifted SLC22A9]”, the “T-cell response (proliferation, CPM)” value [6] was “did not stimulate T-cells”.
